{
  "source": "patent US20240000071A1",
  "about": "“DEVICES, COMPOUNDS AND METHODS FOR INSECT CONTROL” (Agriculture Victoria Services Pty Ltd, priority 2020, published 2024)",
  "key": {"[1]": {"tested_on": "Queensland fruit flies antennae and palps", "assay": "Electroantennogram (EAG) and Electropalpogram (EPG) screening", "parameters": "species or system Bactrocera tryoni", "excerpt": "FIG. 2. Electrophysiological responses of Queensland fruit flies antennae (A) and palps (B) to fungal (FV) components. Graphs located on the upper part of each figure represent the electric potential of the antenna/palp. Arrows indicate points in time at which chemical stimulations are applied. Olfactory “responses” are characterised by sudden drops (spike) of the electric potential in the antenna; the amplitude of which is positively correlated to response strength. Stars indicate statistical significance of response amplitudes elicited by test compounds compared to that of the solvent (blank=paraffin oil). Bars represent the normalized responses relative to a positive control (ethyl hexanoate) of male (grey) and female (white) flies. Letters above bars indicate significant differences in response strength between each sex.\nGraphs located on the upper part represent the electric potential of the antenna/palp. Arrows indicate points in time at which chemical stimulations are applied. Olfactory “responses” are characterised by sudden drops (spike) of the electric potential in the antenna; the amplitude of which is positively correlated to response strength. Stars indicate statistical significance of response amplitudes elicited by test compounds compared to that of the solvent (blank=paraffin oil). Bars represent the normalized responses relative to a positive control (ethyl hexanoate) of male (grey) and female (white) flies. Letters above bars indicate significant differences in response strength between male and female Qfly."}, "[2]": {"assay": "Release rate from LDPE sachets by gravimetry", "type": "physicochemical", "details": "for Release rate per thickness of LDPE pouch: 22° C., constant, laboratory; for Estimated longevity: standard size sachet (50 cm^2), 1 ml of neat compound", "excerpt": "Sachets consist of plastic pouches made of Low Density PolyEthylene (LDPE) layflat tubing of determined size and thickness. Each sachet contained one or several dental wicks (approximately 4 cm length and 1 cm diameter) on which a given amount of the neat chemical compound was applied (between 0.1 and 5 g). The impregnated wick (20) was subsequently enclosed in the LDPE pouch (10) and sealed using a heat sealer (FIG. 3).\nRelease rates of the short chain esters and fungal alcohols were investigated in a range of sachet designs."}, "[3]": {"tested_on": "Mediterranean fruit fly, Ceratitis capitata", "details": "cited from earlier work"}, "female B. tryoni": {"tested_on": "female B. tryoni", "assay": "GC-FID-EAD with odours of infested yellow nectarines", "parameters": "species or system Bactrocera tryoni", "details": "female B. tryoni antenna", "method": "Gas-chromatography linked to electrophysiology (GC-FID-EAD) was conducted using female B. tryoni and odours of infested yellow nectarines (collected by SPME), to identify volatiles of interest as candidate female attractants."}},
  "note": "Like-named read-outs stand apart in the source and are kept apart here.",
  "data": [
    {"smiles": "CCC(C)CO", "note": "(stereo not shown) [2-Methyl-butanol, 2-methyl-1-butanol]", "values": [
      {"measurement": "electrophysiological responses (EAG/EPG)", "setting": "[1]; listed as 2-methyl-1-butanol", "value": "strong electrophysiological responses"},
      {"measurement": "electrophysiological responses (EAG/EPG)", "setting": "[1]; listed as 2-methylbutanol", "value": "strong responses"},
      {"measurement": "Release rate per thickness of LDPE pouch", "setting": "[2]; 50 μm LDPE pouch", "value": 16.4, "unit": "mg/day"},
      {"measurement": "Release rate per thickness of LDPE pouch", "setting": "[2]; 100 μm LDPE pouch", "value": 4.1, "unit": "mg/day"},
      {"measurement": "Release rate per thickness of LDPE pouch", "setting": "[2]; 150 μm LDPE pouch", "value": 2.1, "unit": "mg/day"},
      {"measurement": "Estimated longevity", "setting": "[2]", "value": ">1", "unit": "year"}
    ]},
    {"smiles": "CCOC(C)=O", "note": "[Ethyl acetate]", "values": [
      {"measurement": "Release rate per thickness of LDPE pouch", "setting": "[2]; 50 μm LDPE pouch", "value": 880, "unit": "mg/day"},
      {"measurement": "Release rate per thickness of LDPE pouch", "setting": "[2]; 100 μm LDPE pouch", "value": 302.7, "unit": "mg/day"},
      {"measurement": "Release rate per thickness of LDPE pouch", "setting": "[2]; 150 μm LDPE pouch", "value": 180.6, "unit": "mg/day"},
      {"measurement": "Release rate per thickness of LDPE pouch", "setting": "[2]; 200 μm LDPE pouch", "value": 134, "unit": "mg/day"},
      {"measurement": "Estimated longevity", "setting": "[2]", "value": "~6", "unit": "days"}
    ]},
    {"smiles": "CCCC(=O)OCC", "note": "[Ethyl butyrate]", "values": [
      {"measurement": "Release rate per thickness of LDPE pouch", "setting": "[2]; 50 μm LDPE pouch", "value": 700, "unit": "mg/day"},
      {"measurement": "Release rate per thickness of LDPE pouch", "setting": "[2]; 100 μm LDPE pouch", "value": 295, "unit": "mg/day"},
      {"measurement": "Release rate per thickness of LDPE pouch", "setting": "[2]; 150 μm LDPE pouch", "value": 171, "unit": "mg/day"},
      {"measurement": "Release rate per thickness of LDPE pouch", "setting": "[2]; 200 μm LDPE pouch", "value": 127, "unit": "mg/day"},
      {"measurement": "Estimated longevity", "setting": "[2]", "value": "~6", "unit": "days"}
    ]},
    {"smiles": "CCOC(=O)CC", "note": "[Ethyl propionate]", "values": [
      {"measurement": "Release rate per thickness of LDPE pouch", "setting": "[2]; 50 μm LDPE pouch", "value": 880, "unit": "mg/day"},
      {"measurement": "Release rate per thickness of LDPE pouch", "setting": "[2]; 100 μm LDPE pouch", "value": 321, "unit": "mg/day"},
      {"measurement": "Release rate per thickness of LDPE pouch", "setting": "[2]; 150 μm LDPE pouch", "value": 200, "unit": "mg/day"},
      {"measurement": "Release rate per thickness of LDPE pouch", "setting": "[2]; 200 μm LDPE pouch", "value": 171, "unit": "mg/day"},
      {"measurement": "Estimated longevity", "setting": "[2]", "value": "~5", "unit": "days"}
    ]},
    {"smiles": "CC(C)CCO", "note": "[Isoamyl alcohol]", "values": [
      {"measurement": "electrophysiological responses (EAG/EPG)", "setting": "[1]", "value": "strong electrophysiological responses"},
      {"measurement": "Release rate per thickness of LDPE pouch", "setting": "[2]; 50 μm LDPE pouch", "value": 12, "unit": "mg/day"},
      {"measurement": "Release rate per thickness of LDPE pouch", "setting": "[2]; 100 μm LDPE pouch", "value": 3, "unit": "mg/day"},
      {"measurement": "Release rate per thickness of LDPE pouch", "setting": "[2]; 150 μm LDPE pouch", "value": 2, "unit": "mg/day"},
      {"measurement": "Estimated longevity", "setting": "[2]", "value": ">1", "unit": "year"}
    ]},
    {"smiles": "CC(C)CO", "note": "[Isobutyl alcohol]", "values": [
      {"measurement": "electrophysiological responses (EAG/EPG)", "setting": "[1]", "value": "weak and inconsistent responses"},
      {"measurement": "electrophysiological responses (EAG/EPG)", "setting": "[1]; listed as iso-butyl alcohol", "value": "strong electrophysiological responses"},
      {"measurement": "Release rate per thickness of LDPE pouch", "setting": "[2]; 50 μm LDPE pouch", "value": 20, "unit": "mg/day"},
      {"measurement": "Release rate per thickness of LDPE pouch", "setting": "[2]; 100 μm LDPE pouch", "value": 4, "unit": "mg/day"},
      {"measurement": "Release rate per thickness of LDPE pouch", "setting": "[2]; 150 μm LDPE pouch", "value": 2, "unit": "mg/day"},
      {"measurement": "Estimated longevity", "setting": "[2]", "value": ">1", "unit": "year"}
    ]},
    {"smiles": "CCCCCCC1CCC(=O)O1", "note": "(stereo not shown) [γ-decalactone]", "values": [
      {"measurement": "electrophysiological response in EAG", "setting": "[3]", "value": "evoke an electrophysiological response"},
      {"measurement": "electrophysiological (EAD) response", "setting": "female B. tryoni", "value": "significant response"}
    ]}
  ]
}
